Assay results as given in patent US5130414A, “Isolation and structural elucidation of the cyclic peptide hymenistatin 1” (Arizona Board of Regents, a body corporate of Arizona State …, priority 1989, dated 1992).

Test system: murine P388 lymphocytic leukemia (PS system)
Test: PS system cell growth inhibition (P388 murine leukemia cell line, N.C.I. Protocol)
Type: cell-based

“cyclo [Hymenistatin 1, cyclo [Pro^a -Pro^b -Tyr-Val-Pro^c -Leu-Ili-Ile]]” was tested, and the “PS ED50” value was 3.5 µg/mL.
